According to patent publication US20080227764A1 (published 2008):

What was measured:
Male Wistar rats = experiment: Sedation: resting time in open field activity monitor; type: in vivo, rat
[1] = tested on: diabetic neuropathic rats; experiment: Streptozotocin diabetic neuropathic pain model (Example 1): noxious electrical current, tail flick latency, paw pressure; type: in vivo, rat
[2] = tested on: diabetic neuropathic male Wistar rats; experiment: Paw pressure (Randall Selitto) anti-nociception in rats with diabetic neuropathy (Example 2); type: in vivo, rat
[3] = tested on: rats with experimental insulin-dependent diabetes mellitus; settings: intravenous morphine; diabetic rats; cited from earlier work

CC(=O)OCC(=O)[C@H]1CC[C@H]2[C@@H]3CC[C@H]4C[C@H](O)CC[C@]4(C)[C@H]3C(=O)C[C@]12C [alphadolone acetate, 21-acetoxy-3α-hydroxy-5α-pregnane-11,20-dione]
resting times compared with saline controls (Male Wistar rats; alphadolone acetate 60 mg/kg intraperitoneally): decreased resting times | resting times compared with saline controls (Male Wistar rats; alphadolone acetate doses less than 100 mg/kg intraperitoneally, 30 minutes): did not increase resting times | anti-nociceptive action in diabetic neuropathic pain (ECT, TFL, paw pressure) ([1]; alphadolone acetate 6 mg/kg ip given alone): minimally responsive | anti-nociception to paw pressure ([2]; alphadolone acetate 1.0 mg/kg given alone): ineffective | reversal of the allodynia and hyperalgesia to paw pressure ([2]; alphadolone acetate 10 mg/kg intraperitoneally (maximum dose), given alone): 80% | anti-nociceptive effects, dose response ([2]; alphadolone acetate given alone intraperitoneally, FIG. 9): dose related anti-nociceptive effects | potency in rats with diabetic neuropathy compared with normal weight matched rats ([2]; alphadolone acetate given alone, the two dose response curves overlay each other): same potency

CN1CC[C@]23c4c5ccc(O)c4O[C@H]2[C@@H](O)C=C[C@H]3[C@H]1C5 [morphine]
doses inducing dose-dependent anti-nociceptive effect relative to normal rats [3]: twice as high

COc1ccc2c3c1O[C@H]1C(=O)CC[C@@]4(O)[C@@H](C2)N(C)CC[C@]314 [oxycodone, reference compound]
resting times compared with saline controls (Male Wistar rats; oxycodone 0.25 and 0.125 mg/kg intraperitoneally): decreased resting times | resting times compared with saline controls (Male Wistar rats; oxycodone doses less than 1.0 mg/kg intraperitoneally, 30 minutes): did not increase resting times | anti-nociceptive action in diabetic neuropathic pain (ECT, TFL, paw pressure) ([1]; oxycodone 250 μg/kg given alone): minimally responsive
